Measured values reported in US11912686B2 (Gilead Sciences, Inc., priority 2020, dated 2024).

Target: human LPAR1 (Homo sapiens (Human), UniProt Q92633)
Experiment: LPAR1 intracellular calcium mobilization assay (antagonist mode, FLIPR)
Format: cell-based
Settings: CHO-K1 EDG2 cells expressing human LPAR1, LPA 18:2 at EC80 (100 nM), test compound 0.5 nM to 10 μM

Sequence of human LPAR1 (Q92633 whole entry): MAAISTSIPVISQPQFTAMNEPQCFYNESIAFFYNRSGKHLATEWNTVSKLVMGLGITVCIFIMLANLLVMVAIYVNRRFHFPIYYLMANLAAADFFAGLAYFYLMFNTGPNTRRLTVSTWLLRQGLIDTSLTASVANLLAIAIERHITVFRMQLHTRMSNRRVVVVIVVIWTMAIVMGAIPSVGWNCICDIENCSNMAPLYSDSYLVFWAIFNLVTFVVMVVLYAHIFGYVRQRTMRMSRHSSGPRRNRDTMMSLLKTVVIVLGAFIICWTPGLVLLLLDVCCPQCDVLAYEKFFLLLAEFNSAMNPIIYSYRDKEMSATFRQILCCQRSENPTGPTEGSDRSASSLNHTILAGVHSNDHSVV

SMILES	EC50
C[C@@H](OC(=O)Nc1c(-c2ccc(NC(=O)[C@]3(C#N)C[C@H]3C(F)(F)F)cn2)nnn1C)c1cccnc1Cl [Compound 201, (R)-1-(2-chloropyridin-3-yl)ethyl (4-(5-((1R,2R)-1-cyano-2-(trifluoromethyl)cyclopropane-1-carboxamido)pyridin-2-yl)-1-methyl-1H-1,2,3-triazol-5-yl)carbamate]	146 nM
C[C@@H](OC(=O)Nc1c(-c2ccc(NC(=O)[C@@]3(C#N)C[C@@H]3C(F)(F)F)cn2)nnn1C)c1cccnc1Cl [Compound 202, (R)-1-(2-chloropyridin-3-yl)ethyl (4-(5-((1S,2S)-1-cyano-2-(trifluoromethyl)cyclopropane-1-carboxamido)pyridin-2-yl)-1-methyl-1H-1,2,3-triazol-5-yl)carbamate]	5 nM
C[C@H](C#N)C(=O)Nc1ccc(-c2nnn(C)c2NC(=O)O[C@H](C)c2cccnc2Cl)nc1 [Compound 203, (R)-1-(2-chloropyridin-3-yl)ethyl (4-(5-((R)-2-cyanopropanamido)pyridin-2-yl)-1-methyl-1H-1,2,3-triazol-5-yl)carbamate]	94.8 nM
C[C@@H](C#N)C(=O)Nc1ccc(-c2nnn(C)c2NC(=O)O[C@H](C)c2cccnc2Cl)nc1 [Compound 204, (R)-1-(2-chloropyridin-3-yl)ethyl (4-(5-((S)-2-cyanopropanamido)pyridin-2-yl)-1-methyl-1H-1,2,3-triazol-5-yl)carbamate]	132 nM
C[C@@H](OC(=O)Nc1c(-c2ccc(NC(=O)c3cnc(C(F)(F)F)nc3)cn2)nnn1C)c1cccnc1Cl [Compound 205, (R)-1-(2-chloropyridin-3-yl)ethyl (1-methyl-4-(5-(2-(trifluoromethyl)pyrimidine-5-carboxamido)pyridin-2-yl)-1H-1,2,3-triazol-5-yl)carbamate]	8.3 nM
C[C@@H](OC(=O)Nc1c(-c2ccc(NC(=O)c3cnc(C(F)F)nc3)cn2)nnn1C)c1cccnc1Cl [Compound 206, (R)-1-(2-chloropyridin-3-yl)ethyl (4-(5-(2-(difluoromethyl)pyrimidine-5-carboxamido)pyridin-2-yl)-1-methyl-1H-1,2,3-triazol-5-yl)carbamate]	71.8 nM
C[C@@H](OC(=O)Nc1c(-c2ccc(NC(=O)c3ccc(Cl)nc3)cn2)nnn1C)c1cc(F)cnc1F [Compound 212, (R)-1-(2,5-difluoropyridin-3-yl)ethyl (4-(5-(6-chloronicotinamido)pyridin-2-yl)-1-methyl-1H-1,2,3-triazol-5-yl)carbamate]	56.4 nM
C[C@@H](OC(=O)Nc1c(-c2ccc(NC(=O)c3ccnc(F)c3)cn2)nnn1C)c1cc(F)cnc1F [Compound 213, (R)-1-(2,5-difluoropyridin-3-yl)ethyl (4-(5-(2-fluoroisonicotinamido)pyridin-2-yl)-1-methyl-1H-1,2,3-triazol-5-yl)carbamate]	175 nM
C[C@@H](OC(=O)Nc1c(-c2ccc(NC(=O)C3(C(F)F)COC3)cn2)nnn1C)c1cc(F)cnc1F [Compound 214, (R)-1-(2,5-difluoropyridin-3-yl)ethyl (4-(5-(3-(difluoromethyl)oxetane-3-carboxamido)pyridin-2-yl)-1-methyl-1H-1,2,3-triazol-5-yl)carbamate]	357 nM
C[C@@H](OC(=O)Nc1c(-c2ccc(NC(=O)C34CC(S(C)(=O)=O)(C3)C4)cn2)nnn1C)c1cc(F)cnc1F [Compound 215, (R)-1-(2,5-difluoropyridin-3-yl)ethyl (1-methyl-4-(5-(3-(methylsulfonyl)bicyclo[1.1.1]pentane-1-carboxamido)pyridin-2-yl)-1H-1,2,3-triazol-5-yl)carbamate]	2000 nM
C[C@@H](OC(=O)Nc1c(-c2ccc(NC(=O)[C@@H]3C[C@H]3Cl)cn2)nnn1C)c1cc(F)cnc1F [Compound 218, (R)-1-(2,5-difluoropyridin-3-yl)ethyl (4 (5-((1S,2R)-2-chlorocyclopropane-1-carboxamido)pyridin-2-yl)-1-methyl-1H-1,2,3-triazol-5-yl)carbamate]	24 nM
C[C@@H](OC(=O)Nc1c(-c2ccc(NC(=O)c3cncc(C(F)F)c3)cn2)nnn1C)c1cc(F)cnc1F [Compound 219, (R)-1-(2,5-difluoropyridin-3-yl)ethyl (4-(5-(5-(difluoromethyl)nicotinamido)pyridin-2-yl)-1-methyl-1H-1,2,3-triazol-5-yl)carbamate]	37.7 nM
C[C@@H](OC(=O)Nc1c(-c2ccc(NC(=O)c3ccc(F)nc3)cn2)nnn1C)c1cc(F)cnc1F [Compound 220, (R)-1-(2,5-difluoropyridin-3-yl)ethyl (4-(5-(6-fluoronicotinamido)pyridin-2-yl)-1-methyl-1H-1,2,3-triazol-5-yl)carbamate]	158 nM
Cc1ccc(C(=O)Nc2ccc(-c3nnn(C)c3NC(=O)O[C@H](C)c3cc(F)cnc3F)nc2)cn1 [Compound 221, (R)-1-(2,5-difluoropyridin-3-yl)ethyl (1-methyl-4-(5-(6-methylnicotinamido)pyridin-2-yl)-1H-1,2,3-triazol-5-yl)carbamate]	374 nM
C[C@@H](OC(=O)Nc1c(-c2ccc(NC(=O)c3ccc(C(F)F)nc3)cn2)nnn1C)c1cc(F)cnc1F [Compound 222, (R)-1-(2,5-difluoropyridin-3-yl)ethyl (4-(5-(6-(difluoromethyl)nicotinamido)pyridin-2-yl)-1-methyl-1H-1,2,3-triazol-5-yl)carbamate]	41.7 nM
COc1cc(C(=O)Nc2ccc(-c3nnn(C)c3NC(=O)O[C@H](C)c3cc(F)cnc3F)nc2)ccn1 [Compound 223, (R)-1-(2,5-difluoropyridin-3-yl)ethyl (4-(5-(2-methoxyisonicotinamido)pyridin-2-yl)-1-methyl-1H-1,2,3-triazol-5-yl)carbamate]	118 nM
C[C@@H](OC(=O)Nc1c(-c2ccc(NC(=O)c3ccnc(C(F)F)c3)cn2)nnn1C)c1cc(F)cnc1F [Compound 224, (R)-1-(2,5-difluoropyridin-3-yl)ethyl (4-(5-(2-(difluoromethyl)isonicotinamido)pyridin-2-yl)-1-methyl-1H-1,2,3-triazol-5-yl)carbamate]	40.2 nM
C[C@@H](OC(=O)Nc1c(-c2ccc(NC(=O)C3(C)CC(F)(F)C3)cn2)nnn1C)c1cc(F)cnc1F [Compound 226, (R)-1-(2,5-difluoropyridin-3-yl)ethyl (4-(5-(3,3-difluoro-1-methylcyclobutane-1-carboxamido)pyridin-2-yl)-1-methyl-1H-1,2,3-triazol-5-yl)carbamate]	184 nM
Cc1cnoc1C(=O)Nc1ccc(-c2nnn(C)c2NC(=O)O[C@H](C)c2cc(F)cnc2F)nc1 [Compound 227, (R)-1-(2,5-difluoropyridin-3-yl)ethyl (1-methyl-4-(5-(4-methylisoxazole-5-carboxamido)pyridin-2-yl)-1H-1,2,3-triazol-5-yl)carbamate]	206 nM
C[C@@H](OC(=O)Nc1c(-c2ccc(NC(=O)C3(C)CS(=O)(=O)C3)cn2)nnn1C)c1cc(F)cnc1F [Compound 228, (R)-1-(2,5-difluoropyridin-3-yl)ethyl (1-methyl-4-(5-(3-methyl-1,1-dioxidothietane-3-carboxamido)pyridin-2-yl)-1H-1,2,3-triazol-5-yl)carbamate]	403 nM
